Consider 3 compounds from US20240246942A1, “KINASE INHIBITORS FOR THE TREATMENT OF NEURODEGENERATIVE DISEASES” (priority 2020, published 2024).

The nature of data set [1]: Microsomal stability, mouse. Format: in vitro ADME. Conditions: mouse microsomes.
The next data set addresses CYP2C9 (Homo sapiens, UniProt P11712). Kind of data set: P450 cocktail inhibition assay, CYP2C9. Conditions: at 10 μM. Format: in vitro ADME.
A short description of data set [2]: Microsomal stability, human. The format is in vitro ADME. Conditions: human microsomes.
In a further data set the target is T1, CYP1A2 (Homo sapiens, UniProt P05177).
T1 sequence (P05177 1-516): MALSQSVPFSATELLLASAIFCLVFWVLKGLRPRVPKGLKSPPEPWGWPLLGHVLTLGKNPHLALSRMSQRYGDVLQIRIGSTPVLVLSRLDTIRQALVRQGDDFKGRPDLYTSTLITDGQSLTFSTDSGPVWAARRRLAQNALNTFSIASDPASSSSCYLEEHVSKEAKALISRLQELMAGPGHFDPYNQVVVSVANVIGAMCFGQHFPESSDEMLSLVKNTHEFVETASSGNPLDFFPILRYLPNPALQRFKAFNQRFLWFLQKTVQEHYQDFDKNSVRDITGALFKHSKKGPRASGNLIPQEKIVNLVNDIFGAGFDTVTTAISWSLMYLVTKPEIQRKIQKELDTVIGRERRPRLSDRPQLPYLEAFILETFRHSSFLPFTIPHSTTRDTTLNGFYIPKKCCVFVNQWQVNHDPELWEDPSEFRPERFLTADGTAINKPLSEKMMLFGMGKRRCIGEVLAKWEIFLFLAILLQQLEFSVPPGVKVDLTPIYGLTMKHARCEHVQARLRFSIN
As to the kind of experiment: P450 cocktail inhibition assay, CYP1A2. The format is in vitro ADME. Conditions: at 10 μM.

The target in a further data set is CYP3A4 (Homo sapiens, UniProt P08684). As to the kind of experiment: P450 cocktail inhibition assay, CYP3A4. Format: in vitro ADME. Particulars: at 10 μM.
Sequence of CYP3A4 (P08684 whole entry): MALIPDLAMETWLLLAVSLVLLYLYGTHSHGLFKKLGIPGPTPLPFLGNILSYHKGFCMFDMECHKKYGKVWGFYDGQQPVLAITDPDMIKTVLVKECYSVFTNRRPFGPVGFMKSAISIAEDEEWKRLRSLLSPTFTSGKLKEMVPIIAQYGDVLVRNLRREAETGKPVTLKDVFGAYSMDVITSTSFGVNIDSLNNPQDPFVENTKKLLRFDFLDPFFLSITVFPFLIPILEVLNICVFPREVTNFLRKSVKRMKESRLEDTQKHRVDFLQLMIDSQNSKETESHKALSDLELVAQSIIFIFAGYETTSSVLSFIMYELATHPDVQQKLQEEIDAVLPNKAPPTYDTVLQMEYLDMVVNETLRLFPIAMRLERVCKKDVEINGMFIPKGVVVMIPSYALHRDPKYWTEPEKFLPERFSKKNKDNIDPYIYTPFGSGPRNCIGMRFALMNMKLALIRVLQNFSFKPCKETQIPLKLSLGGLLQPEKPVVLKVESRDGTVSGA
The target of data set [3] is T2, panel of 374 wild-type kinases (Homo sapiens, UniProt P06493).
T2 construct: purchased Reaction Biology Corporation
T2 sequence (P06493 whole entry): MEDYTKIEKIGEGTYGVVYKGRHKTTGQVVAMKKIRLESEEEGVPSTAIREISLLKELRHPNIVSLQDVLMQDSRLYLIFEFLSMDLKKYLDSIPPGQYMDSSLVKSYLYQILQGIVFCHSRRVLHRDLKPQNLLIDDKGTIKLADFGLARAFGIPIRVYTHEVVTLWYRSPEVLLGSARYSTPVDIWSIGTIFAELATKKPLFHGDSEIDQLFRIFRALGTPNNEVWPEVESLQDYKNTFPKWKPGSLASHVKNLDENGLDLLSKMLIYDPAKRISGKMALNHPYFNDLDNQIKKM
Kind of data set: biochemical.

In data set [4] the target is T3, panel of 374 wild-type kinases (Homo sapiens, UniProt P07332).
T3 construct: purchased Reaction Biology Corporation
T3 sequence (P07332 whole entry): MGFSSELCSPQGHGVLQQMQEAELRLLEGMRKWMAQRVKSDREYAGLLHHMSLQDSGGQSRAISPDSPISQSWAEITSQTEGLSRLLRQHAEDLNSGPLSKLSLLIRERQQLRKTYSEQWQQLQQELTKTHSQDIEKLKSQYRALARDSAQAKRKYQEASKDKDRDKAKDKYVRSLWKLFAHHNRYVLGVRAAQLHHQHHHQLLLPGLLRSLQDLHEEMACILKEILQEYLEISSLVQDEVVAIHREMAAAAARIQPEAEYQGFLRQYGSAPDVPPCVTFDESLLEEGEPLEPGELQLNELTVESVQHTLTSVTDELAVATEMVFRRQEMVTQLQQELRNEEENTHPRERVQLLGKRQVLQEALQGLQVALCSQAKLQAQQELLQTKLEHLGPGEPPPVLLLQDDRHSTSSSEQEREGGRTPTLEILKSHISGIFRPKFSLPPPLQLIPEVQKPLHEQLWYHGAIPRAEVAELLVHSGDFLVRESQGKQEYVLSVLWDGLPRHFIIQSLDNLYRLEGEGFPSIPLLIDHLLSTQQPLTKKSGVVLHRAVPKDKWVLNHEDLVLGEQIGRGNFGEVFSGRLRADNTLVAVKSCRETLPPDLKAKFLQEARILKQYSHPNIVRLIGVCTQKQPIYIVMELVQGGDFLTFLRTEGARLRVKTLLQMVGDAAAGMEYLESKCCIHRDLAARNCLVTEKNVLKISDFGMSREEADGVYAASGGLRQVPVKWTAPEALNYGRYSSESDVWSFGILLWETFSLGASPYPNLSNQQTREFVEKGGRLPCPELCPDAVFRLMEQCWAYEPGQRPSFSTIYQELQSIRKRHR
Kind of data set: biochemical. Particulars: read-out: % Enzyme Activity (relative to DMSO controls), FES/FPS.

Data set [5] deals with T4, panel of 374 wild-type kinases (Homo sapiens, UniProt P57078).
T4 construct: purchased Reaction Biology Corporation
T4 sequence (P57078 1-832): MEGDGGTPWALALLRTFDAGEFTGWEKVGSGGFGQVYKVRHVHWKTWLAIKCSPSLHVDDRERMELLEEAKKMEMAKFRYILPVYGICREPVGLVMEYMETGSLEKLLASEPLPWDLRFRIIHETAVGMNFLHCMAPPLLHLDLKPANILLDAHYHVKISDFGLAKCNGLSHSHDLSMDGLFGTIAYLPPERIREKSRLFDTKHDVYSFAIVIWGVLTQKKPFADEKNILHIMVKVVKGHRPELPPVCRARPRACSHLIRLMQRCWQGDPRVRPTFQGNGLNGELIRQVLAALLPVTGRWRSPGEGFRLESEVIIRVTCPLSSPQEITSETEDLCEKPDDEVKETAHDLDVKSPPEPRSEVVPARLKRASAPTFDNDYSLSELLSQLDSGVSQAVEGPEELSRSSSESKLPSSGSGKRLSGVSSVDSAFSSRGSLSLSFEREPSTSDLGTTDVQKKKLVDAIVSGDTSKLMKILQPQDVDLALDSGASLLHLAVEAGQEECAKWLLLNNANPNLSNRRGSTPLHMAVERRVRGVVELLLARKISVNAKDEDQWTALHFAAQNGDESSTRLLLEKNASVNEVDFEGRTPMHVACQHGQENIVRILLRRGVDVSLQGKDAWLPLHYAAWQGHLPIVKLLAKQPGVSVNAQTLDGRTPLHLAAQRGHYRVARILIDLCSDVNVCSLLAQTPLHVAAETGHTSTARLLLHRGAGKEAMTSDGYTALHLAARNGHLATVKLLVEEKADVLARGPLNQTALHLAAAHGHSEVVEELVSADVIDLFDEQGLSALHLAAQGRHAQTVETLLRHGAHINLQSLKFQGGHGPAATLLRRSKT
As to the kind of experiment: biochemical. Conditions: read-out: % Enzyme Activity (relative to DMSO controls), kinase RIPK4.

The target of another data set is CYP2D6 (Homo sapiens, UniProt P10635). Kind of data set: P450 cocktail inhibition assay, CYP2D6. Conditions: at 10 μM. The format is in vitro ADME.
Sequence of CYP2D6 (P10635 whole entry): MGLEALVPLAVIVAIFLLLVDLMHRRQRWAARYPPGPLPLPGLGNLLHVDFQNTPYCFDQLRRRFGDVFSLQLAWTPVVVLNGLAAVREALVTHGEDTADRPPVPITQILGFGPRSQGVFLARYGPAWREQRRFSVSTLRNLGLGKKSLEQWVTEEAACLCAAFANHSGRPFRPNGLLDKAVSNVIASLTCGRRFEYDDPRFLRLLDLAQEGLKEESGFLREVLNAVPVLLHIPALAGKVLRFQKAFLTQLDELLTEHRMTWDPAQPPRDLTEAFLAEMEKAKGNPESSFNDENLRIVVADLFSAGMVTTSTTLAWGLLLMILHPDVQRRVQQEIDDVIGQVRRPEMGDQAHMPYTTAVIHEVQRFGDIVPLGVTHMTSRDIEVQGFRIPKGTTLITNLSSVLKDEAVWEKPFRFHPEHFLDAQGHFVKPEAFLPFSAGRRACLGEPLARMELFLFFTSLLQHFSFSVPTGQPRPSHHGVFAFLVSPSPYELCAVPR
The test system of the next data set is SHSY5Y cells. Kind of data set: MTT cytotoxicity assay.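 Also: compounds tested at 10 µM final concentration.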 Further details: dose or concentration left out as unconfirmed. The format is cell-based. Conditions: 48 hrs, average of ≥2 experiments. As to the method: A day before the assay, cells were plated at 50,000/well in 96 well plates in the culture medium. […] After the incubation, cells were subjected to MTT assay using Vybrant MTT Cell Proliferation kit as directed by the vendor (Life Technologies).
(Tetrazolium dyes change colour on reduction, which living cells bring about.)

Where [6] appears, read: read-out: % Enzyme Activity (relative to DMSO controls), CDK1/cyclin A.
[7] abbreviates: read-out: % Enzyme Activity (relative to DMSO controls), CDK1/cyclin B.
Setting [8] is: read-out: % Enzyme Activity (relative to DMSO controls), CDK1/cyclin E.

Like-named read-outs stand apart in the source and are kept apart here.

Sequence of CYP2C9 (P11712 whole entry): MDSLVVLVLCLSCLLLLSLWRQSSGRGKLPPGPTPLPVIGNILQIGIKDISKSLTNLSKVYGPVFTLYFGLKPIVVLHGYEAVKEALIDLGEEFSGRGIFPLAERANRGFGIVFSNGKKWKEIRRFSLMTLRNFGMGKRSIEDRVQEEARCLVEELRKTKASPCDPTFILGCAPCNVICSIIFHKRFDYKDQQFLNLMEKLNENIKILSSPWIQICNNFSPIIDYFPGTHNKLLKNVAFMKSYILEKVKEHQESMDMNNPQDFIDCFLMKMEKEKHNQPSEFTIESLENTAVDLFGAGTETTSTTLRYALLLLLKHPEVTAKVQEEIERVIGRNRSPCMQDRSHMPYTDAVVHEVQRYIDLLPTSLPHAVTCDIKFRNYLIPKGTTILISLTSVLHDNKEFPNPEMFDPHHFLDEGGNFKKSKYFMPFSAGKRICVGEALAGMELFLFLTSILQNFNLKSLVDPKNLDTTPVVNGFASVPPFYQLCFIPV

As for `O=C(Nc1cnn(-c2csc(C(=O)NC3COC3)c2)c1)Nc1ccccc1Cl` [Compound 17, 4-(4-(3-(2-chlorophenyl)ureido)-1H-pyrazol-1-yl)-N-(oxetan-3-yl)thiophene-2-carboxamide], the “Mic. stability t1/2 Mouse” value in data set [1] was 0.4 h. Besides, the “CYP-450 % inh. 2C9” value on CYP2C9 amounted to 8%. In addition, in data set [2], the “Mic. stability t1/2 Human” value was 1.1 h. The “CYP-450 % inh. 1A2” value at CYP1A2 is 6%. Also, on CYP3A4, the “CYP-450 % inh. 3A4” value is −34%. In addition, the remaining activity at 5 µM was 95.5% in data set [3] (setting [6]); 92.6% in data set [3] (setting [7]); 94.7% in data set [3] (setting [8]); 99.3% in data set [4]; 89.2% in data set [5]. The “CYP-450 % inh. 2D6” value on CYP2D6 was −15%. In addition, the MTT cell viability with SHSY5Y cells stood at 104%.
`O=C(Nc1cnn(-c2csc(C(=O)NC3COC3)c2)c1)Nc1c(F)cccc1Cl` [Compound 25, 4-(4-(3-(2-chloro-6-fluorophenyl)ureido)-1H-pyrazol-1-yl)-N-(oxetan-3-yl)thiophene-2-carboxamide]: the “Mic. stability t1/2 Mouse” value in [1] came to 1.2 h. Further, on CYP2C9, the “CYP-450 % inh. 2C9” value was 48%. For the same compound, the “Mic. stability t1/2 Human” value in data set [2] was determined as 1.67 h. The “CYP-450 % inh. 1A2” value at CYP1A2 turned out to be 36%. Besides, the “CYP-450 % inh. 3A4” value at CYP3A4 worked out at 24%. In addition, the remaining activity at 5 µM amounted to 86.3% in data set [3] (setting [6]); 105% in [3] (setting [7]); 98.4% in [3] (setting [8]); 87.8% in data set [4]; 96.7% in data set [5]. For the same compound, the “CYP-450 % inh. 2D6” value at CYP2D6 is recorded as 31%. Further, in the data set with SHSY5Y cells, the MTT cell viability is recorded as 102%.
In the case of `Cc1sc(C(=O)NC2COC2)cc1-n1cc(NC(=O)Nc2c(F)cccc2Cl)cn1` [Compound 27, 4-(4-(3-(2-chloro-6-fluorophenyl)ureido)-1H-pyrazol-1-yl)-5-methyl-N-(oxetan-3-yl)thiophene-2-carboxamide], in data set [1], the “Mic. stability t1/2 Mouse” value was 0.95 h. Moreover, at CYP2C9, the “CYP-450 % inh. 2C9” value stood at 33%. Moreover, the “Mic. stability t1/2 Human” value in [2] turned out to be 1.83 h. In addition, the “CYP-450 % inh. 1A2” value at CYP1A2 is 22%. In addition, on CYP3A4, the “CYP-450 % inh. 3A4” value worked out at 16%. Besides, the remaining activity at 10 µM in [3] (setting [6]) is 105%; in [3] (setting [7]) it was 92.7%; in data set [3] (setting [8]), 100%; in data set [4] (10 uM), 93.7%; in data set [5] (10 uM) it was 103%. Moreover, the “CYP-450 % inh. 2D6” value at CYP2D6 stood at 1%. Moreover, the MTT cell viability in the data set with SHSY5Y cells is listed as 111%.
